Values quoted from earlier work in patent US6441198B1, “Podophyllotoxin dimer as DNA topoisomerase II inhibitors, and a process for the preparation therefore” (Council of Scientific and Industrial Research, priority 2000, dated 2002).

Key:
[1] = tested on: human DNA topoisomerase II; conditions: relative to etoposide
[2] = tested on: cellular protein-DNA complex formation; conditions: relative to etoposide

## COc1cc(C2c3cc4c(cc3C(Nc3ccc(F)cc3)C3COC(=O)C23)OCO4)cc(OC)c1O (stereo not drawn) [NPF, 4′-0-demethyl-4β-(4″-fluoroanilino)-4-desoxypodophyllotoxin]
[1]
  potency in inhibiting human DNA topoisomerase II compared to etoposide: 10 fold
[2]
  activity in cellular protein-DNA complex formation compared to etoposide: 113 times
Human tumour cell lines
  activity in in vitro human tumour cell lines assay: very active
